Laboratory results reported in patent publication US20220089592A1, “IMIDAZO[1,2-A]PYRIDINYL DERIVATIVES AS IRAK4 INHIBITORS” (priority 2019, published 2022).

Columns and labels:
IRAK4 [1] = molecular target: T1, IRAK4 (Homo sapiens, UniProt Q9NWZ3); assay: 2-hour 10 μM ATP Biochemical Assay (MesoScale Detection format; IRAK4 phosphorylation of biotin labeled IRAK1 activation loop peptide); settings: IRAK4 MSD BIOCHEMICAL (10 μM ATP) IC50 (μM), 1 nM IRAK4, 2 hours
T1 sequence (Q9NWZ3 1-460): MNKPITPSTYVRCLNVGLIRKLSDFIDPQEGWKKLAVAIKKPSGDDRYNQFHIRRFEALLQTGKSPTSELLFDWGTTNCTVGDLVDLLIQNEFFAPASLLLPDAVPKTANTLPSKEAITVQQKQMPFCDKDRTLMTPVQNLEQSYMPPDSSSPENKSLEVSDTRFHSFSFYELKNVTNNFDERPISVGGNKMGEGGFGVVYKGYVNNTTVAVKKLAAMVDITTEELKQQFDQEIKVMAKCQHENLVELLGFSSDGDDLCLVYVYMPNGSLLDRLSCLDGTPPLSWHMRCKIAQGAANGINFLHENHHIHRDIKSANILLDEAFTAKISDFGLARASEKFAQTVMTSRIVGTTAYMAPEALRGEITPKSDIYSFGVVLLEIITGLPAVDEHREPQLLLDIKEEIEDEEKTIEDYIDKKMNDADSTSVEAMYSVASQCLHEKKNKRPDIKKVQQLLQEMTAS
Procedure, shortened: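 Electrochemiluminescent MSD readout: after streptavidin capture, phosphothreonine on the biotin-labelled IRAK1 activation-loop peptide detected by rabbit antibody and Sulfo-Tag secondary. Phosphorylation ran 2 h with 10 μM ATP before EDTA quench.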

IRAK4 [2] = molecular target: T1, IRAK4; assay: 2-hour 1 mM ATP IRAK4 Biochemical assay (as above, but with 100 pM IRAK4 and 1 mM ATP); settings: IRAK4 MSD BIOCHEMICAL (1 mM ATP) IC50 (μM), 100 pM IRAK4, 2 hours
Procedure, shortened: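 MSD electrochemiluminescence read-out: biotinylated peptide product bound to streptavidin plates, probed with anti-P-Thr rabbit antibody and Sulfo-Tag goat anti-rabbit. Kinase reaction used 1 mM ATP and 100 pM IRAK4 over 2 hours before EDTA quench.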

IC50 (IRAK4 [1]) [µM]	IC50 (IRAK4 [2]) [µM]	Structure (SMILES)
0.003	0.004	CCOc1cc2nc(CCCOC)cn2cc1NC(=O)c1ccn(C(F)F)n1 [Example 88, 1-(difluoromethyl)-N-(7-ethoxy-2-(3-methoxypropyl)imidazo[1,2-a]pyridin-6-yl)-1H-pyrazole-3-carboxamide]
0.008	0.016	CCOc1nc2nc(C3CCOCC3)cn2cc1NC(=O)c1cccc(OC)n1 [Example 368, N-(7-ethoxy-2-(tetrahydro-2H-pyran-4-yl)imidazo[1,2-a]pyrimidin-6-yl)-6-methoxypicolinamide]
0.002	0.004	O=C(Nc1cn2cc(C3CC3)nc2cc1OCC1CC1)c1cccc(C(F)F)n1 [Example 25, N-(2-cyclopropyl-7-(cyclopropylmethoxy)imidazo[1,2-a]pyridin-6-yl)-6-(difluoromethyl)picolinamide]
0.001	0.001	CCOc1cc2nc(C3C[C@@H](C)O[C@@H](C)C3)cn2cc1NC(=O)c1cccc(C(F)(F)F)n1 (relative stereo) [Example 250, N-(2-((2R*,6S*)-2,6-dimethyltetrahydro-2H-pyran-4-yl)-7-ethoxyimidazo[1,2-a]pyridin-6-yl)-6-(trifluoromethyl)picolinamide]
0.004	0.015	CCOc1cc2nc(C3CC3)cn2cc1NC(=O)c1cccc(C2CCOC2)n1 (stereo not drawn) [Example 238, N-(2-cyclopropyl-7-ethoxyimidazo[1,2-a]pyridin-6-yl)-6-(tetrahydrofuran-3-yl)picolinamide]
0.001	0.003	CCOc1cc2nc(C3CCN(C)C3=O)cn2cc1NC(=O)c1cccc(C(F)F)n1 (stereo not drawn) [Example 156, 6-(difluoromethyl)-N-(7-ethoxy-2-(1-methyl-2-oxopyrrolidin-3-yl)imidazo[1,2-a]pyridin-6-yl)picolinamide]
0.001	0.005	CCOc1cc2nc(CC3COCCO3)cn2cc1NC(=O)c1cccc(C(F)F)n1 (stereo not drawn) [Example 83, N-(2-((1,4-dioxan-2-yl)methyl)-7-ethoxyimidazo[1,2-a]pyridin-6-yl)-6-(difluoromethyl)picolinamide]
0.009	0.029	CCOc1cc2nc(C3CCOCC3)cn2cc1NC(=O)c1ccn2c1CCC2 [Example 225, N-(7-ethoxy-2-(tetrahydro-2H-pyran-4-yl)imidazo[1,2-a]pyridin-6-yl)-2,3-dihydro-1H-pyrrolizine-7-carboxamide]
0.002	0.003	CCOc1cc2nc(C3CCOCC3)cn2cc1NC(=O)c1cccc(C(F)CF)n1 (stereo not drawn) [Example 239, 6-(1,2-difluoroethyl)-N-(7-ethoxy-2-(tetrahydro-2H-pyran-4-yl)imidazo[1,2-a]pyridin-6-yl)picolinamide]
0.011	0.032	O=C1CC[C@@H](CCOc2cc3nc(C4CC4)cn3cc2NC(=O)c2cccc(C(F)F)n2)N1 [Example 73, (S)—N-(2-cyclopropyl-7-(2-(5-oxopyrrolidin-2-yl)ethoxy)imidazo[1,2-a]pyridin-6-yl)-6-(difluoromethyl)picolinamide]
0.027	0.063	CCOc1cc2nc(C3CC3)cn2cc1NC(=O)c1cccc(OC)n1 [Example 117, N-(2-cyclopropyl-7-ethoxyimidazo[1,2-a]pyridin-6-yl)-6-methoxypicolinamide]
0.003	0.004	CCOc1cc2nc(C3CCOCC3)cn2cc1NC(=O)c1cccc(C2CC2)n1 [Example 366, 6-cyclopropyl-N-(7-ethoxy-2-(tetrahydro-2H-pyran-4-yl)imidazo[1,2-a]pyridin-6-yl)picolinamide]
0.001	0.002	CCOc1cc2nc(CC3CCOC3)cn2cc1NC(=O)c1coc(-c2cnn(C)c2)n1 (stereo not drawn) [Example 22, N-(7-ethoxy-2-((tetrahydrofuran-3-yl)methyl)imidazo[1,2-a]pyridin-6-yl)-2-(1-methyl-1H-pyrazol-4-yl)oxazole-4-carboxamide]
0.004	0.012	CCOc1cc2nc([C@H](O)C3CC3)cn2cc1NC(=O)c1cccc(C(F)(F)F)n1 (single isomer, unassigned) [Example 170]
0.002	0.008	CCOc1cc2nc(C3CCOCC3)cn2cc1NC(=O)c1ccn(C2CCCC2)n1 [Example 208, 1-cyclopentyl-N-(7-ethoxy-2-(tetrahydro-2H-pyran-4-yl)imidazo[1,2-a]pyridin-6-yl)-1H-pyrazole-3-carboxamide]
0.011	0.049	COCCCc1cn2cc(NC(=O)c3cccc(C(F)F)n3)ccc2n1 [Example 234, 6-(difluoromethyl)-N-(2-(3-methoxypropyl)imidazo[1,2-a]pyridin-6-yl)picolinamide]
0.001	0.001	CC1(C)CCC(Oc2cc3nc(C4CCOCC4)cn3cc2NC(=O)c2cccc(C(F)F)n2)C1 (stereo not drawn) [Example 180, 6-(difluoromethyl)-N-(7-((3,3-dimethylcyclopentyl)oxy)-2-(tetrahydro-2H-pyran-4-yl)imidazo[1,2-a]pyridin-6-yl)picolinamide]
0.005	0.015	CCOc1cc(NC(=O)c2cccc(C(F)F)n2)cn2cc(C3CCOCC3)nc12 [Example 413, 6-(difluoromethyl)-N-(8-ethoxy-2-(tetrahydro-2H-pyran-4-yl)imidazo[1,2-a]pyridin-6-yl)picolinamide]
0.005	0.009	CCOc1cc2nc(C3CCOCC3)cn2cc1NC(=O)c1ccn(C2CC2(F)F)n1 (stereo not drawn) [Example 209, 1-(2,2-difluorocyclopropyl)-N-(7-ethoxy-2-(tetrahydro-2H-pyran-4-yl)imidazo[1,2-a]pyridin-6-yl)-1H-pyrazole-3-carboxamide]
0.006	0.014	CCOc1cc2nc(C(C)(C)C#N)cn2cc1NC(=O)c1coc(C(C)C)n1 [Example 358, N-(2-(2-cyanopropan-2-yl)-7-ethoxyimidazo[1,2-a]pyridin-6-yl)-2-isopropyloxazole-4-carboxamide]
0.003	0.015	CCOCc1cn2cc(NC(=O)c3cccc(C(F)(F)F)n3)c(OCC)cc2n1 [Example 55, N-(7-ethoxy-2-(ethoxymethyl)imidazo[1,2-a]pyridin-6-yl)-6-(trifluoromethyl)picolinamide]
0.006	0.019	CCOc1cc2nc(CC)cn2cc1NC(=O)c1ccc2c(n1)CCC2 [Example 49, N-(7-ethoxy-2-ethylimidazo[1,2-a]pyridin-6-yl)-6,7-dihydro-5H-cyclopenta[b]pyridine-2-carboxamide]
0.005	0.044	CCOc1cc2nc(C3CC3)cn2cc1NC(=O)c1cccc(N2CCOCC2)n1 [Example 131, N-(2-cyclopropyl-7-ethoxyimidazo[1,2-a]pyridin-6-yl)-6-morpholinopicolinamide]
0.001	0.005	CCOc1nc2nc(CC3CCOC3)cn2cc1NC(=O)c1cccc(C(F)(F)F)n1 (stereo not drawn) [Example 93, N-(7-ethoxy-2-((tetrahydrofuran-3-yl)methyl)imidazo[1,2-a]pyrimidin-6-yl)-6-(trifluoromethyl)picolinamide]
0.001	0.001	CC1CCC(Oc2cc3nc(C4CCOCC4)cn3cc2NC(=O)c2cccc(C(F)F)n2)C1 (stereo not drawn) [Example 178, 6-(difluoromethyl)-N-(7-((3-methylcyclopentyl)oxy)-2-(tetrahydro-2H-pyran-4-yl)imidazo[1,2-a]pyridin-6-yl)picolinamide]
0.001	0.005	CCOc1cc2nc(C3CCOCC3)cn2cc1NC(=O)c1cccc(N(C)C)n1 [Example 237, 6-(dimethylamino)-N-(7-ethoxy-2-(tetrahydro-2H-pyran-4-yl)imidazo[1,2-a]pyridin-6-yl)picolinamide]
0.005	0.016	CCOc1cc2nc(CC3CCOC3)cn2cc1NC(=O)c1ccn(C)n1 (stereo not drawn) [Example 155, N-(7-ethoxy-2-((tetrahydrofuran-3-yl)methyl)imidazo[1,2-a]pyridin-6-yl)-1-methyl-1H-pyrazole-3-carboxamide]
0.012	0.027	CCOc1cc2nc(CC)cn2cc1NC(=O)c1ccn(C(F)F)n1 [Example 44, 1-(difluoromethyl)-N-(7-ethoxy-2-ethylimidazo[1,2-a]pyridin-6-yl)-1H-pyrazole-3-carboxamide]
0.008	0.003	CCOc1cc2nc(CC3CCOC3)cn2cc1NC(=O)c1ccn(C(C)C)n1 (stereo not drawn) [Example 122, N-(7-ethoxy-2-((tetrahydrofuran-3-yl)methyl)imidazo[1,2-a]pyridin-6-yl)-1-isopropyl-1H-pyrazole-3-carboxamide]
0.006	0.019	CCOc1cc2nc(C3CCOCC3)cn2cc1NC(=O)c1cnc2c(c1)CCO2 [Example 240, N-(7-ethoxy-2-(tetrahydro-2H-pyran-4-yl)imidazo[1,2-a]pyridin-6-yl)-2,3-dihydrofuro[2,3-b]pyridine-5-carboxamide]
